Source: BindingDB's records for doi:10.1021/acs.jmedchem.9b01562 (Lupin, 2019)

Key:
[1] = Inhibition of NS5A in HCV genotype 1b infected in human HuH7.5/Con1/SG-Neo(I)-hRluc2aUb cells assessed as inhibition of replicon levels incubated for 72 hrs by luciferase reporter gene assay
[2] = Inhibition of NS5A in HCV genotype 2a infected in human Huh7.5/J6/JFH1/EMCVIRES/hRlucNeo cells assessed as inhibition of replicon levels incubated for 72 hrs by luciferase reporter gene assay
[3] = Inhibition of NS5A in HCV genotype 1a infected in human HuH7.5/Con1/SG-Neo(I)-hRluc2aUb cells assessed as inhibition of replicon levels incubated for 72 hrs by luciferase reporter gene assay
[4] = Inhibition of NS5A in HCV genotype 3a infected in human HuH7.5/Con1/SG-Neo(I)-hRluc2aUb cells assessed as inhibition of replicon levels incubated for 72 hrs by luciferase reporter gene assay
[5] = Inhibition of NS5A in HCV genotype 4a infected in human HuH7.5/Con1/SG-Neo(I)-hRluc2aUb cells assessed as inhibition of replicon levels incubated for 72 hrs by luciferase reporter gene assay
[6] = Inhibition of NS5A in HCV genotype 6a infected in human HuH7.5/Con1/SG-Neo(I)-hRluc2aUb cells assessed as inhibition of replicon levels incubated for 72 hrs by luciferase reporter gene assay

SMILES | IC50 [1] | IC50 [2] | IC50 [3] | IC50 [4] | IC50 [5] | IC50 [6]
COC(=O)N[C@H](C(=O)N1CCC[C@H]1c1ncc(-c2ccc(N3CC4CC3CN4c3ccc(-c4cnc([C@@H]5CCCN5C(=O)[C@@H](NC(=O)OC)C(C)C)[nH]4)cc3)cc2)[nH]1)C(C)C | 3.7 nM | 4 nM |  |  |  | 
COC(=O)N[C@H](C(=O)N1CCC[C@H]1c1nc(C2CC2)c(-c2ccc3c(c2)OCC(C)(C)COc2cc(-c4[nH]c([C@@H]5CCCN5C(=O)[C@@H](NC(=O)OC)C(C)C)nc4C4CC4)ccc2-3)[nH]1)C(C)C | 0.115 nM | 6.8 nM |  |  |  | 
COC(=O)N[C@H](C(=O)N1CCC[C@H]1c1ncc(-c2ccc3c(ccc4cc(-c5cnc([C@@H]6[C@@H]7CC[C@@H](C7)N6C(=O)[C@@H](NC(=O)OC)C(C)C)[nH]5)sc43)c2)[nH]1)C(C)C | 0.013 nM | 0.011 nM |  |  |  | 
COC(=O)N[C@H](C(=O)N1CCC[C@H]1c1ncc(-c2ccc3c(c2)OCC(C)(C)COc2cc(-c4cnc([C@@H]5CCCN5C(=O)[C@@H](NC(=O)OC)C(C)C)[nH]4)ccc2-3)[nH]1)C(C)C | 0.069 nM | 0.176 nM |  |  |  | 
COC(=O)N[C@H](C(=O)N1CCC[C@H]1c1ncc(-c2ccc3c(c2)OCc2cc(-c4cnc([C@@H]5CCCN5C(=O)[C@@H](NC(=O)OC)C(C)C)[nH]4)sc2-3)[nH]1)C(C)C | 0.02 nM | 0.03 nM | 0.031 nM | 0.075 nM | 0.009 nM | 0.055 nM
COC(=O)N[C@H](C(=O)N1CCC[C@H]1c1ncc(-c2ccc(N3CCN(c4ccc(-c5cnc([C@@H]6CCCN6C(=O)[C@@H](NC(=O)OC)C(C)C)[nH]5)cc4)CC3)cc2)[nH]1)C(C)C | 0.262 nM | 4.6 nM |  |  |  | 
COC(=O)N[C@H](C(=O)N1CCC[C@H]1c1ncc(-c2ccc(C34CCC(c5ccc(-c6cnc([C@@H]7CCCN7C(=O)[C@@H](NC(=O)OC)C(C)C)[nH]6)cc5)(CC3)CC4)cc2)[nH]1)C(C)C | 0.312 nM | 34 nM |  |  |  | 
COC(=O)N[C@H](C(=O)N1CCC[C@H]1c1ncc(-c2ccc3c(c2)OCCCOc2cc(-c4cnc([C@@H]5CCCN5C(=O)[C@@H](NC(=O)OC)C(C)C)[nH]4)ccc2-3)[nH]1)C(C)C | 0.288 nM | 0.314 nM |  |  |  | 
COC(=O)N[C@H](C(=O)N1CCC[C@H]1c1ncc(-c2ccc3c(c2)OCCCCOc2cc(-c4cnc([C@@H]5CCCN5C(=O)[C@@H](NC(=O)OC)C(C)C)[nH]4)ccc2-3)[nH]1)C(C)C | 0.194 nM | 1.3 nM |  |  |  | 
COC(=O)N[C@H](C(=O)N1CCC[C@H]1c1ncc(-c2ccc3c(c2)OCC2(CC2)COc2cc(-c4cnc([C@@H]5CCCN5C(=O)[C@@H](NC(=O)OC)C(C)C)[nH]4)ccc2-3)[nH]1)C(C)C | 0.135 nM | 1.8 nM |  |  |  | 
COC(=O)N[C@H](C(=O)N1CCC[C@H]1c1ncc(-c2ccc3c(c2)OCCCOc2cc(-c4[nH]c([C@@H]5CCCN5C(=O)[C@@H](NC(=O)OC)C(C)C)nc4Cl)ccc2-3)[nH]1)C(C)C | 0.051 nM | 0.053 nM |  |  |  | 
COC(=O)N[C@H](C(=O)N1CCC[C@H]1c1nc(Cl)c(-c2ccc3c(c2)OCCCOc2cc(-c4[nH]c([C@@H]5CCCN5C(=O)[C@@H](NC(=O)OC)C(C)C)nc4Cl)ccc2-3)[nH]1)C(C)C | 0.019 nM | 0.031 nM |  |  |  | 
COC(=O)N[C@H](C(=O)N1CCC[C@H]1c1ncc(-c2ccc3c(c2)CCc2cc(-c4cnc([C@@H]5CCCN5C(=O)[C@@H](NC(=O)OC)C(C)C)[nH]4)sc2-3)[nH]1)C(C)C | 0.021 nM | 0.021 nM |  |  |  | 
COC(=O)N[C@H](C(=O)N1CCC[C@H]1c1ncc(-c2ccc3c(ccc4cc(-c5cnc([C@@H]6CCCN6C(=O)[C@@H](NC(=O)OC)C(C)C)[nH]5)sc43)c2)[nH]1)C(C)C | 0.012 nM | 0.005 nM | 0.027 nM | 0.047 nM | 0.003 nM | 0.028 nM
COC(=O)N[C@H](C(=O)N1CCC[C@H]1c1ncc(-c2ccc3c(c2)OCCc2cc(-c4cnc([C@@H]5CCCN5C(=O)[C@@H](NC(=O)OC)C(C)C)[nH]4)sc2-3)[nH]1)C(C)C | 0.022 nM | 10.6 nM |  |  |  | 
COC(=O)N[C@H](C(=O)N1CCC[C@H]1c1nc(Cl)c(-c2ccc3c(c2)CCCc2cc(-c4[nH]c([C@@H]5CCCN5C(=O)[C@@H](NC(=O)OC)C(C)C)nc4Cl)sc2-3)[nH]1)C(C)C | 0.02 nM | 0.052 nM |  |  |  | 
COC(=O)N[C@H](C(=O)N1CCC[C@H]1c1nc(Cl)c(-c2ccc3c(c2)OCCc2cc(-c4[nH]c([C@@H]5CCCN5C(=O)[C@@H](NC(=O)OC)C(C)C)nc4Cl)sc2-3)[nH]1)C(C)C | 0.008 nM | 1.3 nM |  |  |  | 
COC(=O)N[C@H](C(=O)N1CCC[C@H]1c1ncc(-c2ccc3c(c2)CC2(C3)Cc3ccc(-c4cnc([C@@H]5CCCN5C(=O)[C@@H](NC(=O)OC)C(C)C)[nH]4)cc3C2)[nH]1)C(C)C | 0.08 nM | 27 nM |  |  |  | 
COC(=O)N[C@H](C(=O)N1CCC[C@H]1c1ncc(-c2ccc3c(c2)OCC(C)(C)COc2cc(-c4[nH]c([C@@H]5CCCN5C(=O)[C@@H](NC(=O)OC)C(C)C)nc4Cl)ccc2-3)[nH]1)C(C)C | 0.021 nM | 0.671 nM |  |  |  | 
COC(=O)N[C@H](C(=O)N1CCC[C@H]1c1nc(Cl)c(-c2ccc3c(c2)OCC(C)(C)COc2cc(-c4[nH]c([C@@H]5CCCN5C(=O)[C@@H](NC(=O)OC)C(C)C)nc4Cl)ccc2-3)[nH]1)C(C)C | 0.004 nM | 0.322 nM |  |  |  | 
COC(=O)N[C@H](C(=O)N1CCC[C@H]1c1ncc(-c2ccc3c(c2)CCCc2cc(-c4cnc([C@@H]5CCCN5C(=O)[C@@H](NC(=O)OC)C(C)C)[nH]4)sc2-3)[nH]1)C(C)C | 0.021 nM | 0.801 nM |  |  |  | 
COC(=O)N[C@H](C(=O)N1[C@H]2CC[C@H](C2)[C@H]1c1ncc(-c2ccc3c(ccc4cc(-c5cnc([C@@H]6[C@@H]7CC[C@@H](C7)N6C(=O)[C@@H](NC(=O)OC)C(C)C)[nH]5)sc43)c2)[nH]1)C(C)C | 0.021 nM | 0.337 nM |  |  |  | 
COC(=O)N[C@H](C(=O)N1CCC[C@H]1c1ncc(-c2ccc3c(c2)CCc2cc(-c4cnc([C@@H]5CCCN5C(=O)[C@@H](NC(=O)OC)C(C)C)[nH]4)ccc2-3)[nH]1)C(C)C | 0.015 nM | 0.009 nM |  |  |  | 
COC(=O)N[C@H](C(=O)N1CCC[C@H]1c1ncc(-c2ccc(-c3ccc(-c4ccc(-c5cnc([C@@H]6CCCN6C(=O)[C@@H](NC(=O)OC)C(C)C)[nH]5)cc4)cc3)cc2)[nH]1)C(C)C | 0.136 nM | 26 nM |  |  |  | 
CCc1nc([C@@H]2CCCN2C(=O)[C@@H](NC(=O)OC)C(C)C)[nH]c1-c1ccc2c(c1)OCC(C)(C)COc1cc(-c3[nH]c([C@@H]4CCCN4C(=O)[C@@H](NC(=O)OC)C(C)C)nc3CC)ccc1-2 | 0.219 nM | 80 nM |  |  |  | 
COC(=O)N[C@H](C(=O)N1CCC[C@H]1c1ncc(-c2ccc3c(ccc4sc(-c5cnc([C@@H]6CCCN6C(=O)[C@@H](NC(=O)OC)C(C)C)[nH]5)nc43)c2)[nH]1)C(C)C | 0.073 nM |  |  |  |  | 
COC(=O)N[C@H](C(=O)N1CCC[C@H]1c1nc(-c2ccc(-c3ccc(-c4c[nH]c([C@@H]5CCCN5C(=O)[C@@H](NC(=O)OC)C(C)C)n4)cc3)cc2)c[nH]1)C(C)C [BMS-790052] | 0.023 nM | 0.009 nM |  |  |  | 
